Marks after values point to notes of the source that are not given here.
System: rats
Assay: 28-day repeated dose study in rats with mass spectrometry-based plasma metabolite profiling (GC-MS, LC-MS, SPE-LC-MS); treatment ratios versus control
Conditions: plasma
[1] = female rats, day 7, high dose, Table 4a inhibition of weak acid excretion
[2] = female rats, day 7, high dose, Table 4b inhibition of weak acid excretion
[3] = female rats, day 14, high dose, Table 4a inhibition of weak acid excretion
[4] = female rats, day 14, high dose, Table 4b inhibition of weak acid excretion
[5] = female rats, day 28, high dose, Table 4a inhibition of weak acid excretion
[6] = female rats, day 28, high dose, Table 4b inhibition of weak acid excretion
[7] = male rats, day 7, high dose, Table 4c inhibition of weak acid excretion
[8] = male rats, day 7, high dose, Table 4d inhibition of weak acid excretion
[9] = male rats, day 14, high dose, Table 4c inhibition of weak acid excretion
[10] = male rats, day 14, high dose, Table 4d inhibition of weak acid excretion
[11] = male rats, day 28, high dose, Table 4c inhibition of weak acid excretion
[12] = male rats, day 28, high dose, Table 4d inhibition of weak acid excretion
[13] = male rats, day 7, high dose, Table 6b ACE inhibitor induced like toxicity
[14] = male rats, day 14, high dose, Table 6b ACE inhibitor induced like toxicity
[15] = male rats, day 28, high dose, Table 6b ACE inhibitor induced like toxicity

Structure (SMILES): Cc1cc(Cl)ccc1OCC(=O)O [MCPA]
- Glycerol, lipid fraction, treatment ratio versus control [1]: 1.69 *
- Linoleic acid (C18:cis[9,12]2), treatment ratio versus control [1]: 1.66 *
- Lysophosphatidylcholine (C18:2), treatment ratio versus control [1]: 1.38^
- Phosphatidylcholine (C16:0, C16:0), treatment ratio versus control [1]: 1.52 *
- Phosphatidylcholine (C16:0, C18:2), treatment ratio versus control [1]: 1.66 *
- Phosphatidylcholine (C16:0, C20:5), treatment ratio versus control [1]: 2.03 *
- Phosphatidylcholine (C16:1, C18:2), treatment ratio versus control [1]: 2.92 *
- Phosphatidylcholine (C18:0, C18:1), treatment ratio versus control [1]: 1.57 *
- Phosphatidylcholine (C18:1, C18:2), treatment ratio versus control [1]: 1.68^
- gamma-Linolenic acid (C18:cis[6,9,12]3), treatment ratio versus control [1]: 4.23 *
- Arginine, treatment ratio versus control [2]: 0.62 *
- Indole-3-lactic acid, treatment ratio versus control [2]: 0.24 *
- Ketoleucine, treatment ratio versus control [2]: 0.42 *
- Proline, treatment ratio versus control [2]: 0.61 *
- Tryptophan, treatment ratio versus control [2]: 0.17 *
- trans-4-Hydroxyproline, treatment ratio versus control [2]: 0.57^
- Glycerol, lipid fraction, treatment ratio versus control [3]: 1.38 *
- Linoleic acid (C18:cis[9,12]2), treatment ratio versus control [3]: 1.36 *
- Lysophosphatidylcholine (C18:2), treatment ratio versus control [3]: 1.45 *
- Phosphatidylcholine (C16:0, C16:0), treatment ratio versus control [3]: 1.8 *
- Phosphatidylcholine (C16:0, C18:2), treatment ratio versus control [3]: 1.82 *
- Phosphatidylcholine (C16:0, C20:5), treatment ratio versus control [3]: 2.09 *
- Phosphatidylcholine (C16:1, C18:2), treatment ratio versus control [3]: 2.88 *
- Phosphatidylcholine (C18:0, C18:1), treatment ratio versus control [3]: 1.74 *
- Phosphatidylcholine (C18:1, C18:2), treatment ratio versus control [3]: 2.12 *
- gamma-Linolenic acid (C18:cis[6,9,12]3), treatment ratio versus control [3]: 2.93 *
- Arginine, treatment ratio versus control [4]: 0.58 *
- Indole-3-lactic acid, treatment ratio versus control [4]: 0.24 *
- Ketoleucine, treatment ratio versus control [4]: 0.21 *
- Proline, treatment ratio versus control [4]: 0.45 *
- Tryptophan, treatment ratio versus control [4]: 0.18 *
- trans-4-Hydroxyproline, treatment ratio versus control [4]: 0.47 *
- Glycerol, lipid fraction, treatment ratio versus control [5]: 1.6 *
- Linoleic acid (C18:cis[9,12]2), treatment ratio versus control [5]: 1.28 *
- Lysophosphatidylcholine (C18:2), treatment ratio versus control [5]: 1.35 *
- Phosphatidylcholine (C16:0, C16:0), treatment ratio versus control [5]: 1.78 *
- Phosphatidylcholine (C16:0, C18:2), treatment ratio versus control [5]: 1.45 *
- Phosphatidylcholine (C16:0, C20:5), treatment ratio versus control [5]: 1.61 *
- Phosphatidylcholine (C16:1, C18:2), treatment ratio versus control [5]: 2.45 *
- Phosphatidylcholine (C18:0, C18:1), treatment ratio versus control [5]: 1.56 *
- Phosphatidylcholine (C18:1, C18:2), treatment ratio versus control [5]: 1.78 *
- gamma-Linolenic acid (C18:cis[6,9,12]3), treatment ratio versus control [5]: 2.99 *
- Arginine, treatment ratio versus control [6]: 0.58 *
- Indole-3-lactic acid, treatment ratio versus control [6]: 0.23 *
- Ketoleucine, treatment ratio versus control [6]: 0.15 *
- Proline, treatment ratio versus control [6]: 0.42 *
- Tryptophan, treatment ratio versus control [6]: 0.16 *
- trans-4-Hydroxyproline, treatment ratio versus control [6]: 0.6 *
- 3-Indoxylsulfate, treatment ratio versus control [7]: 0.72^
- Aspartate, treatment ratio versus control [7]: 0.58 *
- Ceramide (d18:1, C24:0), treatment ratio versus control [7]: 1.2
- Cholesterolester No 01, treatment ratio versus control [7]: 0.97^
- Lysophosphatidylethanolamine (C22:5), treatment ratio versus control [7]: 1.16^
- Phosphatidylcholine (C16:0, C20:5), treatment ratio versus control [7]: 1.73 *
- gamma-Linolenic acid (C18:cis[6,9,12]3), treatment ratio versus control [7]: 1.69 *
- Arachidonic acid (C20:cis[5,8,11,14]4), treatment ratio versus control [8]: 0.27 *
- Arginine, treatment ratio versus control [8]: 0.72 *
- Aspartate, treatment ratio versus control [8]: 0.58 *
- Choline plasmalogen (C18, C20:4), treatment ratio versus control [8]: 0.64 *
- Cytosine, treatment ratio versus control [8]: 0.63 *
- Glucose, treatment ratio versus control [8]: 0.75 *
- Indole-3-lactic acid, treatment ratio versus control [8]: 0.36 *
- Lysine, treatment ratio versus control [8]: 0.4 *
- Lysophosphatidylcholine (C18:0), treatment ratio versus control [8]: 0.81 *
- Methionine, treatment ratio versus control [8]: 0.66 *
- Nervonic acid (C24:cis[15]1), treatment ratio versus control [8]: 0.67 *
- Phosphatidylcholine (C18:0, C20:4), treatment ratio versus control [8]: 0.36 *
- Ribal, treatment ratio versus control [8]: 0.94 *
- 3-Indoxylsulfate, treatment ratio versus control [9]: 1.53 *
- Aspartate, treatment ratio versus control [9]: 1.01^
- Ceramide (d18:1, C24:0), treatment ratio versus control [9]: 2.39 *
- Cholesterolester No 01, treatment ratio versus control [9]: 1.27 *
- Lysophosphatidylethanolamine (C22:5), treatment ratio versus control [9]: 1.08^
- Phosphatidylcholine (C16:0, C20:5), treatment ratio versus control [9]: 1.82 *
- gamma-Linolenic acid (C18:cis[6,9,12]3), treatment ratio versus control [9]: 2.68 *
- Arachidonic acid (C20:cis[5,8,11,14]4), treatment ratio versus control [10]: 0.42 *
- Arginine, treatment ratio versus control [10]: 0.57 *
- Aspartate, treatment ratio versus control [10]: 1.01^
- Choline plasmalogen (C18, C20:4), treatment ratio versus control [10]: 0.76 *
- Cytosine, treatment ratio versus control [10]: 0.63 *
- Glucose, treatment ratio versus control [10]: 0.72 *
- Indole-3-lactic acid, treatment ratio versus control [10]: 0.38
- Lysine, treatment ratio versus control [10]: 0.3 *
- Lysophosphatidylcholine (C18:0), treatment ratio versus control [10]: 0.83 *
- Methionine, treatment ratio versus control [10]: 0.59 *
- Nervonic acid (C24:cis[15]1), treatment ratio versus control [10]: 0.74 *
- Phosphatidylcholine (C18:0, C20:4), treatment ratio versus control [10]: 0.55 *
- Ribal, treatment ratio versus control [10]: 0.89 *
- 3-Indoxylsulfate, treatment ratio versus control [11]: 1.92 *
- Aspartate, treatment ratio versus control [11]: 0.69^
- Ceramide (d18:1, C24:0), treatment ratio versus control [11]: 1.72 *
- Cholesterolester No 01, treatment ratio versus control [11]: 1.32 *
- Lysophosphatidylethanolamine (C22:5), treatment ratio versus control [11]: 1.1
- Phosphatidylcholine (C16:0, C20:5), treatment ratio versus control [11]: 2.11 *
- gamma-Linolenic acid (C18:cis[6,9,12]3), treatment ratio versus control [11]: 2.54 *
- Arachidonic acid (C20:cis[5,8,11,14]4), treatment ratio versus control [12]: 0.26 *
- Arginine, treatment ratio versus control [12]: 0.68 *
- Aspartate, treatment ratio versus control [12]: 0.69 *
- Choline plasmalogen (C18, C20:4), treatment ratio versus control [12]: 0.45 *
- Cytosine, treatment ratio versus control [12]: 0.6 *
- Glucose, treatment ratio versus control [12]: 0.6 *
- Indole-3-lactic acid, treatment ratio versus control [12]: 0.3 *
- Lysine, treatment ratio versus control [12]: 0.33 *
- Lysophosphatidylcholine (C18:0), treatment ratio versus control [12]: 0.73 *
- Methionine, treatment ratio versus control [12]: 0.64 *
- Nervonic acid (C24:cis[15]1), treatment ratio versus control [12]: 0.76 *
- Phosphatidylcholine (C18:0, C20:4), treatment ratio versus control [12]: 0.24 *
- Ribal, treatment ratio versus control [12]: 0.77 *

Structure (SMILES): Oc1c(Cl)c(Cl)c(Cl)c(Cl)c1Cl [Pentachlorophenol]
- Glycerol, lipid fraction, treatment ratio versus control [1]: 1.56 *
- Linoleic acid (C18:cis[9,12]2), treatment ratio versus control [1]: 1.35 *
- Lysophosphatidylcholine (C18:2), treatment ratio versus control [1]: 1.32 *
- Phosphatidylcholine (C16:0, C16:0), treatment ratio versus control [1]: 1.04^
- Phosphatidylcholine (C16:0, C18:2), treatment ratio versus control [1]: 1.02^
- Phosphatidylcholine (C16:0, C20:5), treatment ratio versus control [1]: 1.05 *
- Phosphatidylcholine (C16:1, C18:2), treatment ratio versus control [1]: 0.87^
- Phosphatidylcholine (C18:0, C18:1), treatment ratio versus control [1]: 0.98^
- Phosphatidylcholine (C18:1, C18:2), treatment ratio versus control [1]: 0.85^
- gamma-Linolenic acid (C18:cis[6,9,12]3), treatment ratio versus control [1]: 0.78 *
- Arginine, treatment ratio versus control [2]: 0.56 *
- Indole-3-lactic acid, treatment ratio versus control [2]: 0.62 *
- Ketoleucine, treatment ratio versus control [2]: 0.6 *
- Proline, treatment ratio versus control [2]: 0.73 *
- Tryptophan, treatment ratio versus control [2]: 0.6 *
- trans-4-Hydroxyproline, treatment ratio versus control [2]: 0.87 *
- Glycerol, lipid fraction, treatment ratio versus control [3]: 2.38 *
- Linoleic acid (C18:cis[9,12]2), treatment ratio versus control [3]: 1.8 *
- Lysophosphatidylcholine (C18:2), treatment ratio versus control [3]: 1.41 *
- Phosphatidylcholine (C16:0, C16:0), treatment ratio versus control [3]: 1.25 *
- Phosphatidylcholine (C16:0, C18:2), treatment ratio versus control [3]: 1.34 *
- Phosphatidylcholine (C16:0, C20:5), treatment ratio versus control [3]: 1.57 *
- Phosphatidylcholine (C16:1, C18:2), treatment ratio versus control [3]: 1.32 *
- Phosphatidylcholine (C18:0, C18:1), treatment ratio versus control [3]: 1.54 *
- Phosphatidylcholine (C18:1, C18:2), treatment ratio versus control [3]: 1.4 *
- gamma-Linolenic acid (C18:cis[6,9,12]3), treatment ratio versus control [3]: 1.81^
- Arginine, treatment ratio versus control [4]: 0.72^
- Indole-3-lactic acid, treatment ratio versus control [4]: 0.65 *
- Ketoleucine, treatment ratio versus control [4]: 0.64 *
- Proline, treatment ratio versus control [4]: 0.74 *
- Tryptophan, treatment ratio versus control [4]: 0.62 *
- trans-4-Hydroxyproline, treatment ratio versus control [4]: 0.92^
- Glycerol, lipid fraction, treatment ratio versus control [5]: 1.61 *
- Linoleic acid (C18:cis[9,12]2), treatment ratio versus control [5]: 1.73 *
- Lysophosphatidylcholine (C18:2), treatment ratio versus control [5]: 1.66 *
- Phosphatidylcholine (C16:0, C16:0), treatment ratio versus control [5]: 1.1 *
- Phosphatidylcholine (C16:0, C18:2), treatment ratio versus control [5]: 1.49 *
- Phosphatidylcholine (C16:0, C20:5), treatment ratio versus control [5]: 1.67 *
- Phosphatidylcholine (C16:1, C18:2), treatment ratio versus control [5]: 1.54 *
- Phosphatidylcholine (C18:0, C18:1), treatment ratio versus control [5]: 1.41 *
- Phosphatidylcholine (C18:1, C18:2), treatment ratio versus control [5]: 1.3 *
- gamma-Linolenic acid (C18:cis[6,9,12]3), treatment ratio versus control [5]: 3.23 *
- Arginine, treatment ratio versus control [6]: 0.44 *
- Indole-3-lactic acid, treatment ratio versus control [6]: 0.49 *
- Ketoleucine, treatment ratio versus control [6]: 0.6 *
- Proline, treatment ratio versus control [6]: 0.74 *
- Tryptophan, treatment ratio versus control [6]: 0.54 *
- trans-4-Hydroxyproline, treatment ratio versus control [6]: 0.94 *

Structure (SMILES): CCOC(=O)[C@H](CCc1ccccc1)N[C@@H](C)C(=O)N1[C@H](C(=O)O)C[C@@H]2CCC[C@@H]21 [Ramipril]
- Cytosine, treatment ratio versus control [13]: 0.7 *
- Glutamate, treatment ratio versus control [13]: 0.92 *
- Glycine, treatment ratio versus control (male rats, day 14, high dose, Table 6a ACE inhibitor induced like toxicity): 1.5 *
- Cytosine, treatment ratio versus control [14]: 0.85 *
- Glutamate, treatment ratio versus control [14]: 0.71 *
- Cytosine, treatment ratio versus control [15]: 0.91^
- Glutamate, treatment ratio versus control [15]: 0.61 *
